Measured values as given in patent US20060094661A1, “NY-ESO-1 peptide analogs” (priority 2004, published 2006).
Where a SMILES comes first, the peptide text is derived from it. [ ]: non-standard residue; d: D form. Nva = CCC[C@H](N)C(=O)O

Legend:
HLA-A*0201 = HLA-A*0201 (Homo sapiens, UniProt P04439, D140Y/D185E/D98H/E176V/E277Q/G131W/G231S/I119V/I121R/I166T/I218V/L300P/L318F/N151K/N90K/P208A/P217A/Q86G/Q94H/R138H/R169H/T345S); experiment: ED50 (M)
Source text: Table printed on a drawing sheet, Figure 27B
Head of the field: ED50 (M)

[1] = system: T cell lines specific for the native epitope (PRAME425-433); experiment: Cross reactivity of PRAME425-433 analogs: IFN-γ secretion from T cell line specific for native epitope; type: cell-based; conditions: analog peptide at approximately 0.3 μM; normalized to native peptide
Procedure: At 7 days after the last boost, the mice were sacrificed and a suspension of splenocytes prepared at 5×10^6 […] cells/ml in complete HL-1 medium. Cells were incubated with different concentrations of peptide for 48 hours in flat-bottomed 96-well plates (200 ul/well) and for an additional 24 hours with rIL-2 at 10 U/ml added to the wells. The supernatant was harvested and the concentration of IFN-gamma assessed by standard methods such as ELISA. […] The observed affinities of the analogs are reported as % binding (compared to the positive control) and ED50s. Stability of binding as half time of dissociation. Cross reactivity with the native epitope was assessed by using the analog peptides to stimulate IFG-gamma secretion from a T cell lines specific for the native epitope, essentially as described in Example 6. The data shown in FIGS. 26-28 were generated by stimulating with analog peptide at approximately 0.3 μM. […] In some cases the reported values are the average of two determinations.

EC50 (HLA-A*0201) [nM]	Molecule	IFN-γ elicited, of that of the native peptide [1] [%]
688	CCC[C@H](NC(=O)CNC(=O)[C@@H](NC(=O)[C@H](CC(C)C)NC(=O)[C@H](Cc1c[nH]cn1)NC(=O)[C@H](CCC(N)=O)NC(=O)[C@H](CC(C)C)NC(=O)[C@H](CCSC)NC(=O)[C@@H](N)CO)[C@@H](C)CC)C(=O)O [56 | Prame 425-433 (L426M,L433(Nva))] (H-SMLQHLIG[Nva]-OH; N-terminus and C-terminus assumed)	
2940	CCC[C@H](NC(=O)CNC(=O)[C@@H](NC(=O)[C@H](CC(C)C)NC(=O)[C@H](Cc1c[nH]cn1)NC(=O)[C@H](CCC(N)=O)NC(=O)[C@H](CC(C)C)NC(=O)[C@H](CCC)NC(=O)[C@@H](N)CO)[C@@H](C)CC)C(=O)O [50 | Prame 425-433 (L426(Nva),L433(Nva)), S(Nva)LQHLIG(Nva)] (H-S[Nva]LQHLIG[Nva]-OH; N-terminus and C-terminus assumed)	
	Lys P1 analog: PRAME425-433 analog with Lys for the Ser at the P1 position (KLLQHLIGL)	40
